Test results from patent US5360803A, “Composition and method for treating cancer” (Dan Farber Cancer Institute, priority 1992, dated 1994).
Read-outs that look alike come from different tables or passages of the source.

Columns and labels:
[1] = test system: LOX cells; assay: colony assay of Example 1 with human melanoma LOX cell line; assay type: cell-based; conditions: for Selectivity: CV-1/LOX; for IC50: Homo sapiens, LOX, 24 h, Table V, human melanoma, 24 hours treatment;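 for all read-outs here: colony formation assay with 24 h exposure at 37 °C, then 7 to 10 days of regrowth, crystal violet staining of colonies, control wells given medium alone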
[2] = test system: human melanoma LOX; assay: survival of nude mice implanted with human melanoma LOX; assay type: in vivo, male athymic Swiss nu/nu mouse (human tumor); conditions: Mus musculus, ip, 24 h, read-out: T/C
Method: LOX, a human melanoma cell line, grown subcutaneously in nude mice was excised, trypsinized to yield a single cell suspension using a metal grid with a […] mesh. […] Five million viable trypan blue negative cells made up in 0.1 ml of Dulbecco modified Eagle medium (DMFE) were injected into the peritoneal cavity of a male athymic Swiss nu/nu mouse. The control group and each treatment group consisted of 5 to 10 mice. Treatment was commenced the following day by intraperitoneal injection.
Ten control mice received 0.25 ml of 2% dextrose on these days the treated groups were injected with the compounds of this invention. […] T/C is the ratio, expressed as a percentage of the mean survival age of the treated group to the mean survival age of the untreated control group.

[3] = test system: CV-1 cells; assay: selective killing assay, colony number reduced to 50% of control, normal monkey kidney epithelial cell line CV-1; assay type: cell-based; conditions: 24 hours treatment; for IC50: Primates; for CV-1 (IC50): Table III
Excerpt: The control received culture media only.

[4] = test system: CX-1 cells; assay: selective killing assay, colony number reduced to 50% of control, human colon carcinoma cell line CX-1; assay type: cell-based; conditions: for Selectivity (ratio of IC50 for CV-1 and IC50 for CX-1): CV-1/CX-1; for IC50: Homo sapiens, CX-1, Table III; for IC50 / CX-1 (IC50): human colon carcinoma, 24 hours treatment, colony count after 7 to 10 days; for CX-1 (IC50): Table III;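 for all read-outs here: colonies stained with crystal violet and counted, control cells given medium alone, exposure at 37 °C, normal monkey kidney epithelial CV-1 cells as the non-cancer comparator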
[5] = test system: CRL 1420 cells; assay: colony assay of Example 1 with human pancreatic carcinoma CRL 1420 cell line; assay type: cell-based; conditions: for Selectivity: CV-1/CRL-1420; for IC50: Homo sapiens, 24 h, Table VII, human pancreatic carcinoma, 24 hours treatment;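 for all read-outs here: colony formation assay, cells exposed for 24 h then regrown 7 to 10 days without compound, colonies stained with crystal violet, control given medium alone, normal reference CV-1 monkey kidney epithelial cells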
[6] = test system: EJ cells; assay: colony assay of Example 1 with human bladder carcinoma EJ cell line; assay type: cell-based; conditions: for Selectivity: CV-1/EJ; for IC50: Homo sapiens, EJ, 24 h, Table IV, human bladder carcinoma, 24 hours treatment;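 for all read-outs here: colony formation assay with 24 h compound exposure at 37 °C, then 7–10 days drug-free regrowth, colonies stained with crystal violet, controls given medium alone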
Method: Human colon carcinoma cell line CX-1 or normal monkey kidney epithelial cell line CV-1 was chosen as representatives of cancer cells and normal cells, respectively. […] CX-1 cells (2,000 cells/well) and CV-1 cells (1,000 cells/well) were plated in 24-well plastic culture plates. […] The control received culture media only. Cells were treated with compounds of General Formulas (I) to (V) at 37° C. for 24 hours. After rinsing with fresh culture medium three times, the cells were further incubated at 37° C. for 7 to 10 days. Cell colonies were fixed and stained with 2% crystal violet in 70% ethanol for 10 minutes and rinsed in water. […] The selectivity is defined as the ratio of IC50 for CV-1 and IC50 for CX-1.

[7] = CV-1, Table III, normal monkey kidney epithelial cells, colony count after 7 to 10 days
[8] = normal monkey kidney epithelial cells, colony count after 7 to 10 days
[9] = 5 mg/kg i.p. on day 1, 4, 8, 10, 12

IC50 [1] [µg/mL]	SMILES	Selectivity [1]	IC50 ([3]; CV-1, 24 h, Table V) [µg/mL]	Selectivity (ratio of IC50 for CV-1 and IC50 for CX-1) [4]	IC50 [4] [µg/mL]	IC50 [3, 7] [µg/mL]	response vs control in vivo at 5 mg/kg [2, 9] [%]	also measured
0.04	CCn1c(=Cc2cccc[n+]2CC)sc(=C2Oc3c(ccc4ccccc34)N2C)c1=O [Compound 214]	500	20	–	–	–	–	response vs control in vivo at 10 mg/kg ([2]; 10 mg/kg i.p. on day 1, 4, 8, 10, 12): > 300%
0.02	CCn1c(=Cc2oc3c4ccccc4ccc3[n+]2CC)sc(=C2Sc3c(ccc4ccccc34)N2C)c1=O [Compound 238]	1000	20	400	0.05	20	–	IC50 ([3]; CV-1, 24 h, Table IV): 20 µg/mL; IC50 ([3]; CV-1, 24 h, Table VII): 20 µg/mL; Selectivity [5]: 1000; IC50 [5]: 0.02 µg/mL; Selectivity [6]: 2000; IC50 [6]: 0.01 µg/mL
0.05	CCn1c(=Cc2cccc[n+]2CC)sc(=C2Sc3c(ccc4ccccc34)N2C)c1=O [Compound 239]	400	20	200	0.1	20	–	IC50 ([3]; CV-1, 24 h, Table IV): 20 µg/mL; IC50 ([3]; CV-1, 24 h, Table VII): 20 µg/mL; Selectivity [5]: 400; IC50 [5]: 0.05 µg/mL; Selectivity [6]: 250; IC50 [6]: 0.08 µg/mL
–	CCn1c(=Cc2sc3ccccc3[n+]2CC)sc(=C2Sc3ccc(Cl)cc3N2C)c1=O [Compound 244]	–	–	–	10	0.05	–	response vs control in vivo at 10 mg/kg ([2]; 10 mg/kg i.p. on day 1, 2, 6, 8, 13): 150%
–	CCn1c(=Cc2oc3ccccc3[n+]2CC)sc(=C2Sc3ccccc3N2C)c1=O [Compound 245]	–	–	350	–	–	–	CX-1 (IC50) [4]: 7 µg/mL; response vs control in vivo at 15 mg/kg ([2]; 15 mg/kg i.p. on day 1, 5, 9, 13, 19): 200%; CV-1 (IC50) [3, 8]: 0.02 µg/mL
–	CCn1c(=Cc2cc[n+](CC)c3ccccc23)sc(=C2C=Cc3ccccc3N2C)c1=O [Compound 256]	–	–	200	0.02	4	171	–
–	CCn1c(=Cc2cccc[n+]2CC)sc(=C2Sc3ccccc3N2C)c1=O [Compound 283]	–	–	–	–	–	–	response vs control in vivo at 5 mg/kg ([2]; 5 mg/kg i.p. on day 1, 4, 8, 11, 14): > 350%
–	CCn1c(=Cc2oc3c4ccccc4ccc3[n+]2CC)sc(=C2Oc3ccc4ccccc4c3N2C)c1=O [Compound 316]	–	–	100	–	–	> 340	CX-1 (IC50) [4]: 0.01 µg/mL; CV-1 (IC50) [3, 8]: 1 µg/mL
0.005	CCn1c(=Cc2sc3ccc4ccccc4c3[n+]2CC)sc(=C2Sc3ccccc3N2C)c1=O [Compound 338]	400	2	–	–	–	–	response vs control in vivo at 4 mg/kg ([2]; 4 mg/kg i.p. on day 1, 3, 4, 6, 8, 10, 13): 194%
0.03	CCn1c(=Cc2scc(C)[n+]2CC)sc(=C2Sc3ccccc3N2C)c1=O [Compound 339]	333	10	–	–	–	> 340	–
–	CCn1c(=Cc2cccc[n+]2CC)sc(=C2Sc3ccccc3N2C)c1=O [Compound 342]	–	–	–	–	–	–	response vs control in vivo at 5 mg/kg ([2]; 5 mg/kg i.p. on day 1, 5, 8, 11, 14): > 350%
–	CCn1c(=C2CCC[n+]3c2sc2ccccc23)sc(=C2Sc3ccccc3N2C)c1=O [Compound 343]	–	–	–	–	–	–	response vs control in vivo at 5 mg/kg ([2]; 5 mg/kg i.p. on day 1, 3, 4, 6, 8, 10, 13): 188%
–	CCn1c(=Cc2scc(C)[n+]2CC)sc(=C2Sc3ccc4ccccc4c3N2C)c1=O [Compound 344]	–	–	–	–	–	> 288	–
